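Interpolation was linear, between the two tested concentrations surrounding the appropriate level; five concentrations were tested over 48 hours in 96-well plates. Here, GI50 denotes the concentration required for 50% inhibition of growth. TGI denotes the concentration required for complete inhibition of growth.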

The subject of this assay is MDA-MB-468 breast. Description: growth of human tumour cells (NCI), 48 h.
As to `CNC(=O)c1ccc(N2C(=S)N(c3ccc(C#N)c(C(F)(F)F)c3)C(=O)C2(C)C)cc1F`, the GI50 was 17100 nM and the TGI was above 75.7 µM.

In the case of `COc1cc(-c2ccc(-c3ccc(C(=N)N)nc3)s2)cc(OC)c1OC`, the GI50 was 1740 nM and the TGI is 4.41 µM. With `CC(=Nc1ccccc1)C1=C(O)C(Cc2ccc(O)cc2)NC1=O` (configuration not stated), the GI50 was 24.4 nM and the TGI turned out to be 0.0874 µM. Take `COc1ccc(-c2cc(-c3ccc(Cl)cc3)nc(SCCCC(=O)NO)n2)cc1`: the GI50 was 1490 nM and the TGI is 4.34 µM.

Consider `C=C1C(=O)O[C@H]2[C@H]1CC/C(COC(=O)C(=O)c1cn(C)c3ccc(Cl)cc13)=C\CC[C@@]1(C)O[C@@H]21`, for which the GI50 is 248 nM and the TGI was 0.637 µM. For `Cc1c2c(cc[n+]1Cc1ccccc1)c1ccc(OCc3ccccc3)cc1n2Cc1ccccc1` the same measures were 191 nM and 0.915 µM. Regarding `NC1CCC(Nc2nc(NCc3ccc(-c4ccccc4O)nc3)c3ncn(C4CCCC4)c3n2)CC1` (configuration not stated), the GI50 is below 10 nM and the TGI is 0.0129 µM.

With `Cc1ccc(Cc2cnc(NC(=O)/C=C/c3cccc(C)c3)s2)cc1`, the GI50 is 309 nM. On to `O=S(=O)(NCCCNc1nccc(-c2c(-c3ccc(F)c(O)c3)nc3sccn23)n1)c1ccc(F)cc1`, for which the GI50 was 2620 nM and the TGI was 7.35 µM. For `COc1cc2ncn(-c3cc(O[C@@H](C)c4ccccc4Cl)c(C(N)=O)s3)c2cc1OC` the same measures were 120 nM and 1.61 µM. With `Cc1ccc2c(-c3ccnc(Nc4ccccc4)n3)c(-c3ccc(F)cc3)nn2n1`, the GI50 was 961 nM and the TGI came to 6.35 µM. Consider `C=C(NC(=O)C(=C)NC(=O)c1csc(C2=NC3c4csc(n4)C4NC(=O)c5csc(n5)C(C(C)(O)C(C)O)NC(=O)C5CSC(=N5)C(=CC)NC(=O)C(C(C)O)NC(=O)c5csc(n5)C3(CC2)NC(=O)C(C)NC(=O)C(=C)NC(=O)C(C)NC(=O)C(C(C)CC)NC2C=Cc3c(C(C)O)cc(nc3C2O)C(=O)OC4C)n1)C(N)=O` (configuration not stated), for which the GI50 was 1580 nM and the TGI was found to be 3.63 µM. For `CCCN(CCC)c1ccc(/C=C/c2ccc3cc(OCC)ccc3n2)cc1` the same measures were 80100 nM and above 100 µM. As to `C=C(C)[C@@H]1CC[C@]2(C(=O)O)CC[C@]3(C)[C@H](CC[C@@H]4[C@@]5(C)CCC(NC(=O)c6cccc(OC(C)=O)c6OC(C)=O)C(C)(C)[C@@H]5CC[C@]43C)[C@@H]12` (some centres not stated), the GI50 was 424 nM and the TGI turned out to be 2.89 µM. On to `O=C1NC(=O)C(c2ccccc2Cl)=C1Nc1cc(Cl)c(O)c(Cl)c1`, for which the GI50 was 6290 nM and the TGI was above 21.4 µM. Consider `N#CC1=C(N)Oc2c(ccc3ccccc23)C1c1ccccc1` (configuration not stated), for which the GI50 was 75.1 nM and the TGI came out at 1.79 µM. Regarding `C=C1C(=O)O[C@H]2[C@H]1CC/C(COC(=O)c1cc3ccccc3o1)=C\CC[C@@]1(C)O[C@@H]21`, the GI50 was 1500 nM and the TGI came to 3.72 µM. Consider `C/C(=N\Nc1cc(C)c2ccccc2n1)c1ccccn1`, for which the GI50 was 66.2 nM and the TGI amounted to 0.749 µM. For `CCC(=O)Nc1ccccc1C#C/C=C\C#Cc1ccccc1SC` the same measures were 3120 nM and above 100 µM.

As for `CCN(Cc1ccccc1)c1ccc(CO)c(Cl)c1`, the GI50 is 20.2 nM and the TGI came out at 0.0559 µM. Take `C[C@@H](O)[C@H](NC(=O)N[C@@H](CC(N)=O)c1nc([C@@H](N)CO)no1)C(=O)O`: the GI50 was above 100000 nM and the TGI was above 100 µM. For `CC(C)C[C@H](NC(=O)Cn1ccc(NCc2ccccc2)cc1=O)B(O)O` the same measures were 370 nM and 1.78 µM. For `CC(=O)N1C/C(=C/c2ccc(Cl)cc2)C(=O)/C(=C/c2ccc(Cl)cc2)C1` the same measures were 469 nM and 1.76 µM. For `CCOC(=O)NC1C2CC(=O)OC(O2)C1OC(C)=O` (configuration not stated) the same measures were above 100000 nM and above 100 µM.

Consider `O=C1CC(=O)N(C(=O)c2nn(-c3ccc(Cl)cc3)cc2O)N1`, for which the GI50 was 716 nM and the TGI was above 66.5 µM. For `O=C(O)c1ccc(Oc2nccc(-c3c(-c4ccc(F)cc4)ncn3C3CCNCC3)n2)cc1` the same measures were above 25000 nM and above 25 µM.

In the case of `CS(=O)(=O)CCNCc1ccc(-c2ccc3ncnc(Nc4ccc(OCc5ccccc5)c(Br)c4)c3c2)o1`, the GI50 is 82 nM and the TGI came out at 1 µM. With `COc1ccc(NC([Se])=NC23CC4CC(CC(C4)C2)C3)cc1`, the GI50 is 1350 nM and the TGI was 3.42 µM. In the case of `COc1cc2c(cc1OC)-c1ccc3cc4c(cc3c1N(CCCn1ccnc1)C2)OCO4`, the GI50 was 397 nM and the TGI worked out at 2.73 µM. For `COc1cccc(/C=C/[N+](=O)[O-])c1` the same measures were 2300 nM and 5.21 µM. Regarding `C=C(CN1CCN(c2cccc(C(F)(F)F)n2)CC1)c1ccc(C(=O)Nc2ccccc2N)cc1`, the GI50 was 1190 nM and the TGI is 7.28 µM. Consider `C=CCn1c(SCC(=O)Nc2ccc(C(=O)/C=C/c3cc(OC)c(OC)c(OC)c3)cc2)nnc1-c1c[nH]c2ccccc12`, for which the GI50 is 1770 nM and the TGI was found to be 4.21 µM. For `Cc1nc2sc(C(=O)Nc3cccc4ccccc34)c(N)c2cc1C(O)c1ccccc1` (configuration not stated) the same measures were 35.1 nM and 15.2 µM. With `COc1cc(N2CCC(N3CCN(C)CC3)CC2)ccc1Nc1ncnc(Nc2ccccc2S(=O)(=O)C(C)C)n1`, the GI50 was 4780 nM and the TGI came out at 20.3 µM.

For the origin of these results see PubChem BioAssay (NCI).
